{
  "source": "patent US20180186755A1",
  "about": "“LYSYL OXIDASE-LIKE 2 INHIBITORS AND USES THEREOF” (PharmAkea, Inc., priority 2015, published 2018)",
  "note": "Counter-ions that a name gives are not always drawn.",
  "data": [
    {"biological_target": "T1, human LOXL2 (Homo sapiens, UniProt Q9Y4K0)", "T1 construct": "expressed in transfected cells; 10-20x concentrated conditioned media used as the enzyme source", "T1 sequence (Q9Y4K0 26-774)": "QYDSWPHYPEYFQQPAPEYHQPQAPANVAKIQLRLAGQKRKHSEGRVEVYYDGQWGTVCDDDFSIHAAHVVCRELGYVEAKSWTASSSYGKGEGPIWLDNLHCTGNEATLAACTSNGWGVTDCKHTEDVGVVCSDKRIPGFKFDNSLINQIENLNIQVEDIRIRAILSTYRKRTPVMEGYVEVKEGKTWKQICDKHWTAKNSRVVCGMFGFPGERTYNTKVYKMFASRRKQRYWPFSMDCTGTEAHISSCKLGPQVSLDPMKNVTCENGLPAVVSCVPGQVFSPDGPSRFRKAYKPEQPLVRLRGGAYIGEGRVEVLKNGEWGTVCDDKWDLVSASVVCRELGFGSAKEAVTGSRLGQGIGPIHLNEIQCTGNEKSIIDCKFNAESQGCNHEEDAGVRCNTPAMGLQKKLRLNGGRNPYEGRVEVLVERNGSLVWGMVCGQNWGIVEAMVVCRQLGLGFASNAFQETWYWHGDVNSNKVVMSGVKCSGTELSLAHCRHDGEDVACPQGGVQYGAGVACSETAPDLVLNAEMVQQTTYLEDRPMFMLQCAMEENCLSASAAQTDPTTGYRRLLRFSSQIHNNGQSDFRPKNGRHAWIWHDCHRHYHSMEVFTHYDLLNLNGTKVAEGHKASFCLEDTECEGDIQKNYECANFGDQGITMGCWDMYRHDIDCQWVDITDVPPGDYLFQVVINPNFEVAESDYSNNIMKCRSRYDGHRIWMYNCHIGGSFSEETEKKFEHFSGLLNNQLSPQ", "assay": "Human LOXL2 amine oxidase activity assay (Amplex Red fluorescence)", "type": "biochemical", "details": "concentrated conditioned media from CHO cells stably expressing human LOXL2; 2 h at 37° C. preincubation; DAP substrate", "description": "Example B-1: Human LOXL2 Amine Oxidase Activity Assay\nLOXL2 amine oxidase activity is evaluated by measuring Amplex Red fluorescence using 10-20× concentrated conditioned media from CHO cells stably expressing human LOXL2.\nTo assay for amine oxidase activity, 10 μL of the concentrated conditioned media is incubated with 2 μL of test compound in DMSO and 73 μL Assay Buffer (50 mM Borate Buffer, pH8) for 2 h at 37° C. After the 2 h incubation, 5 ul of 10 mM 1,5-Diaminopentane (DAP) diluted in Assay Buffer and 10 μl of Amplex Red Mix (8.5 μl Assay Buffer+0.5 μl of 10 mM Amplex Red+1 μl of 500 U/ml Horseradish Peroxidase) are added and the plate mixed and immediately placed on the FlexStaion for fluorescence measurements. Fluorescence is read in kinetic mode every 2 min for 1 hour at excitation=544 and emission=590. The amine oxidase activity is calculated from the slope of the linear portion of the curve.", "units": {"IC50": "nM"}, "values": [
      {"smiles": "NCc1cc(NCc2cccc(C(=O)N3CCN(c4ccccc4)CC3)c2)ncn1", "note": "[Compound 1-100, (3-(((6-(Aminomethyl)pyrimidin-4-yl)amino)methyl)phenyl)(4-phenylpiperazin-1-yl)methanone]", "IC50": "100 to 1000"},
      {"smiles": "NCc1cc(N2CCN(C(=O)Nc3ccccc3)CC2)ncn1", "note": "[Compound 1-105, 4-(6-(Aminomethyl)pyrimidin-4-yl)-N-phenylpiperazine-1-carboxamide]", "IC50": "100 to 1000"},
      {"smiles": "NCc1cc(NCc2cccc(C(=O)NCc3sc4ccccc4c3Cl)c2)ncn1", "note": "[Compound 1-98, 3-(((6-(Aminomethyl)pyrimidin-4-yl)amino)methyl)-N-((3-chlorobenzo[b]thiophen-2-yl)methyl)benzamide]", "IC50": "< 100"},
      {"smiles": "NCc1cc(OCc2cccc(C(=O)NCc3cc4cc(F)ccc4s3)c2)ncn1", "note": "[Compound 1-82, 3-(((6-(Aminomethyl)pyrimidin-4-yl)oxy)methyl)-N-((5-fluorobenzo[b]thiophen-2-yl)methyl)benzamide]", "IC50": "< 100"},
      {"smiles": "NCc1cc(OCc2cccc(C(=O)N3CCN(c4ccccc4)CC3)c2)ncn1", "note": "[Compound 1-91, (3-(((6-(Aminomethyl)pyrimidin-4-yl)oxy)methyl)phenyl)(4-phenylpiperazin-1-yl)methanone]", "IC50": "< 100"},
      {"smiles": "NCc1cc(Oc2cccc3c2ccn3CCO)ncn1", "note": "[Compound 1-48, 2-(4-((6-(Aminomethyl)pyrimidin-4-yl)oxy)-1H-indol-1-yl)ethan-1-ol]", "IC50": "< 100"},
      {"smiles": "NCc1cc(Oc2cccc(C(=O)N3CCc4cccnc43)c2)ncn1", "note": "[Compound 1-51, (3-((6-(Aminomethyl)pyrimidin-4-yl)oxy)phenyl)(2,3-dihydro-H-pyrrolo[2,3-b]pyridin-1-yl)methanone, hydrochloride]", "IC50": "< 100"},
      {"smiles": "Cc1n[nH]c2c1CN(C(=O)c1cccc(COc3cc(CN)ncn3)c1)CC2", "note": "[Compound 1-89, (3-(((6-(Aminomethyl)pyrimidin-4-yl)oxy)methyl)phenyl)(3-methyl-6,7-dihydro-1H-pyrazolo[4,3-c]pyridin-5(4H)-yl)methanone]", "IC50": "< 100"},
      {"smiles": "NCc1cc(Oc2cccc(C(=O)N3CCC(O)(C(F)(F)F)CC3)c2)ncn1", "note": "[Compound 1-74, (3-((6-(Aminomethyl)pyrimidin-4-yl)oxy)phenyl)(4-hydroxy-4-(trifluoromethyl)piperidin-1-yl)methanone]", "IC50": "< 100"},
      {"smiles": "NCc1cc(OCc2cccc(C(=O)N3CCC(O)(C(F)(F)F)CC3)c2)ncn1", "note": "[Compound 1-94, (3-(((6-(Aminomethyl)pyrimidin-4-yl)oxy)methyl)phenyl)(4-hydroxy-4-(trifluoromethyl)piperidin-1-yl)methanone]", "IC50": "< 100"},
      {"smiles": "NCc1cc(Oc2cccc(C(=O)NCc3cc4ccccc4s3)c2)ncn1", "note": "[Compound 1-6, 3-((6-(Aminomethyl)pyrimidin-4-yl)oxy)-N-(benzo[b]thiophen-2-ylmethyl)benzamide hydrochloride]", "IC50": "< 100"},
      {"smiles": "CCn1ccc2c(Oc3cc(CN)ncn3)cccc21", "note": "[Compound 1-20, (6-((1-Ethyl-1H-indol-4-yl)oxy)pyrimidin-4-yl)methanamine]", "IC50": "< 100"},
      {"smiles": "NCc1cc(NCc2cccc(C(=O)Nc3ccccc3)c2)ncn1", "note": "[Compound 1-43, 3-(((6-(Aminomethyl)pyrimidin-4-yl)amino)methyl)-N-phenylbenzamide]", "IC50": "< 100"},
      {"smiles": "CC(C)(O)CNC(=O)c1cccc(COc2cc(CN)ncn2)c1", "note": "[Compound 1-34, 3-(((6-(Aminomethyl)pyrimidin-4-yl)oxy)methyl)-N-(2-hydroxy-2-methylpropyl)benzamide]", "IC50": "< 100"},
      {"smiles": "NCc1cc(Oc2cccc(C(=O)N3C[C@@H](O)[C@H](F)C3)c2)ncn1", "note": "(racemic) [Compound 1-11, Racemic-trans-(3-((6-(aminomethyl)pyrimidin-4-yl)oxy)phenyl)(3-fluoro-4-hydroxypyrrolidin-1-yl)methanone hydrochloride]", "IC50": "< 100"},
      {"smiles": "NCc1cc(OCc2cccc(C(=O)NCc3cc4ccccc4s3)c2)ncn1", "note": "[Compound 1-81, 3-(((6-(Aminomethyl)pyrimidin-4-yl)oxy)methyl)-N-(benzo[b]thiophen-2-ylmethyl)benzamide]", "IC50": "< 100"},
      {"smiles": "NCc1cc(OCc2cccc(C(=O)NCCn3cnnn3)c2)ncn1", "note": "[Compound 1-46, N-(2-(1H-Tetrazol-1-yl)ethyl)-3-(((6-(aminomethyl)pyrimidin-4-yl)oxy)methyl)benzamide]", "IC50": "< 100"},
      {"smiles": "NCc1cc(Oc2cccc3c2ccn3CC(=O)N2CCCCC2)ncn1", "note": "[Compound 1-23, 2-(4-((6-(Aminomethyl)pyrimidin-4-yl)oxy)-1H-indol-1-yl)-1-(piperidin-1-yl)ethan-1-one]", "IC50": "100 to 1000"},
      {"smiles": "NCc1cc(-n2ncc3c(CO)cccc32)ncn1", "note": "[Compound 1-61, (1-(6-(Aminomethyl)pyrimidin-4-yl)-1H-indazol-4-yl)methanol]", "IC50": "< 100"},
      {"smiles": "NCc1cc(OCc2cccc(C(=O)N3CCc4ccncc43)c2)ncn1", "note": "[Compound 1-93, (3-(((6-(Aminomethyl)pyrimidin-4-yl)oxy)methyl)phenyl)(2,3-dihydro-1H-pyrrolo[2,3-c]pyridin-1-yl)methanone]", "IC50": "< 100"},
      {"smiles": "NCc1cc(Oc2cccc(C(=O)N[C@@H](CO)c3ccccc3)c2)ncn1", "note": "[Compound 1-57, (R)-3-((6-(Aminomethyl)pyrimidin-4-yl)oxy)-N-(2-hydroxy-1-phenylethyl)benzamide]", "IC50": "< 100"},
      {"smiles": "NCc1cc(Oc2cccc(C(=O)NCc3cc4cccnc4[nH]3)c2)ncn1", "note": "[Compound 1-67, N-((1H-Pyrrolo[2,3-b]pyridin-2-yl)methyl)-3-((6-(aminomethyl)pyrimidin-4-yl)oxy)benzamide]", "IC50": "< 100"},
      {"smiles": "NCc1cc(Oc2cccc(C(=O)N3CC[C@H](O)C3)c2)ncn1", "note": "[Compound 1-10, (S)-(3-((6-(Aminomethyl)pyrimidin-4-yl)oxy)phenyl)(3-hydroxypyrrolidin-1-yl)methanone hydrochloride]", "IC50": "< 100"},
      {"smiles": "CN(C(=O)Cn1ccc2c(Oc3cc(CN)ncn3)cccc21)c1ccccc1", "note": "[Compound 1-24, 2-(4-((6-(Aminomethyl)pyrimidin-4-yl)oxy)-1H-indol-1-yl)-N-methyl-N-phenylacetamide]", "IC50": "< 100"},
      {"smiles": "NCc1cc(OCc2cccc(C(=O)NCc3cccnc3)c2)ncn1", "note": "[Compound 1-79, 3-(((6-(Aminomethyl)pyrimidin-4-yl)oxy)methyl)-N-(pyridin-3-ylmethyl)benzamide]", "IC50": "< 100"},
      {"smiles": "NCc1cc(Oc2cccc3c2CCC(=O)N3CC(=O)O)ncn1", "note": "[Compound 1-14, 2-(5-((6-(Aminomethyl)pyrimidin-4-yl)oxy)-2-oxo-3,4-dihydroquinolin-1(2H)-yl)acetic Acid Hydrochloride]", "IC50": "100 to 1000"},
      {"smiles": "NCc1cc(OCc2cccc(C(=O)NCc3ccccc3)c2)ncn1", "note": "[Compound 1-41, 3-(((6-(Aminomethyl)pyrimidin-4-yl)oxy)methyl)-N-benzylbenzamide]", "IC50": "< 100"},
      {"smiles": "CS(=O)(=O)CCNC(=O)c1cccc(Oc2cc(CN)ncn2)c1", "note": "[Compound 1-12, 3-((6-(Aminomethyl)pyrimidin-4-yl)oxy)-N-(2-(methylsulfonyl)ethyl)benzamide hydrochloride]", "IC50": "< 100"},
      {"smiles": "CN(C)C(=O)c1cccc(COc2cc(CN)ncn2)c1", "note": "[Compound 1-33, 3-(((6-(Aminomethyl)pyrimidin-4-yl)oxy)methyl)-N,N-dimethylbenzamide]", "IC50": "< 100"},
      {"smiles": "C#C[C@H](CC(=O)OC)NC(=O)c1cccc(Oc2cc(CN)ncn2)c1", "note": "[Compound 1-75, (S)-Methyl 3-(3-((6-(aminomethyl)pyrimidin-4-yl)oxy)benzamido)pent-4-ynoate]", "IC50": "< 100"}
    ]}
  ]
}
